Assay results published in publication PMC11998009, “Identification of a New FtsZ Inhibitor by Virtual Screening, Mechanistic Insights, and Structure–Activity Relationship Analyses” (ACS Infectious Diseases, 2025).
In brackets after ≈: the same amount, converted by molar mass. Where two headings read alike, the source gives them in different places.

Key:
S. aureus TD276 = assay: MIC against the FtsZ-mCherry strain; assay type: cell-based; conditions: Staphylococcus aureus
[1] = tested on: S. aureus cystic fibrosis clinical isolates; assay: MIC for CF clinical isolates; assay type: cell-based
S. aureus ATCC25923 [2] = assay: Time-killing curve; assay type: cell-based
Protocol: (§1) page 19: […] MIC method. […] The cultures were incubated at 37°C, and aliquots were […] Serial dilutions were spread on LB solid medium and the plates were incubated at 37°C O/N. Then, the number of colonies was determined. Killing curves were constructed by plotting the log10 CFU/ml vs. time. Bactericidal activity was defined as a reduction of 99.9% (≥3 log 10) of the total number of CFU/ml in the original inoculum (NCCLS, 1999). Bacteriostatic activity was defined as maintenance of the original inoculum concentration or a reduction of less than 99.9% (<3 log10) of the total number of CFU/ml in the original inoculum. Live cell imaging experiments […] Cells were diluted to OD of 0.02 in fresh TSB containing in the case of strain TD276 anhydrotetracycline 0.4 μM to induce the expression of mCherryFtsZ. After 1 hour of incubation at 37°C 2 μl of the culture was spotted onto an agar pad prepared with TSB and […] For time-lapse microscopy experiments, an inverted widefield microscope (Leica DMi8S) equipped with a 100× oil immersion objective (HC PL FLUOTAR 100x/1.32 OIL) was used. […] Images were recorded at 15-min intervals and up to 5 h. Bacteria were visualized in phase- contrast and fluorescence with the required parameters. […] S. aureus […] in fluorescence (with the required parameters for Hoechst and mCherry) using a 160x objective (HC PL APO S19

S. aureus ATCC25923 [3] = assay: Single-cell time-lapse microscopy, cell area; assay type: cell-based; conditions: 2 × MIC (4 μg/mL), 5 h
Protocol: as §1

[4] = tested on: S. aureus TD276 expressing FtsZ-mCherry; assay: FtsZ localization by fluorescence time-lapse microscopy; assay type: cell-based; conditions: 4 μg/mL C11, time-lapse; untreated 4%
[5] = tested on: S. aureus ATCC25923 biofilms; assay: Biofilm inhibition assay (CFU counting, CLSM); assay type: cell-based
[6] = tested on: S. aureus ATCC25923 biofilms; assay: Biofilm eradication assay (CFU counting, CLSM); assay type: cell-based
G. mellonella = assay: Toxicity in uninfected G. mellonella larvae; assay type: in vivo, Galleria mellonella; conditions: 40 mg/kg
P. aeruginosa PAO1 = assay: MIC / checkerboard with PaβN; assay type: cell-based
[7] = tested on: P. aeruginosa PAO1, K. pneumoniae ATCC13883, and A. baumannii ATCC19606; assay: MIC of C11 with PAβN, Gram-negative panel as a whole; assay type: cell-based; conditions: efflux pump inhibitor PAβN present
FtsZPa [8] = biological target: T1, FtsZPa (Pseudomonas aeruginosa, UniProt P47204); assay: FtsZPa polymerization assay
T1 sequence (P47204 1-394): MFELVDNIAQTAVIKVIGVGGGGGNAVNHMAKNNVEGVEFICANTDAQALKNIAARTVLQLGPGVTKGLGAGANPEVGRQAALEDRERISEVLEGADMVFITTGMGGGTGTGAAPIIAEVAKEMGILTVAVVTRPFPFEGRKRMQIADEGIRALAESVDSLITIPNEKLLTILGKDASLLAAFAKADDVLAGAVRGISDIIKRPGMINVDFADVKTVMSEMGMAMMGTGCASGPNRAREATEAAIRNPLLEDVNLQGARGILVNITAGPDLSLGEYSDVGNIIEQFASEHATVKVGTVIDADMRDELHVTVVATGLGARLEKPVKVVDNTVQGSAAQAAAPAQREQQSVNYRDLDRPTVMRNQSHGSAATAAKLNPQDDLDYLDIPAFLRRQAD

[9] = MTT cell viability assay on A549; conditions: human, A549 cells
[10] = tested on: A549 pulmonary epithelial cells; assay: MTT cell viability assay on A549; conditions: A549, 25 μM, 24 h
[11] = MTT cell viability assay on CFBE41o-; conditions: human, CFBE41o- cells
CFBE41o- cells = assay: MTT cell viability assay on CFBE41o-; conditions: CFBE41o-, 12.5 μM (4.8 μg/mL), 6 h
FtsZPa [12] = biological target: T1, FtsZPa; assay: FtsZPa GTPase activity; assay type: biochemical; set-up: made in house; host or cells: Escherichia coli BL21DE3

COc1ccc(Cc2nnc(SC3=CS(=O)(=O)c4ccccc43)o2)cc1 [C11]
MIC (S. aureus TD276): 2 µg/mL (≈ 5.18 µM) | MIC ([1]; S. aureus BG8 MRSA, single drug): 2 µg/mL (≈ 5.18 µM) | MIC ([1]; S. aureus BG9 MRSA, single drug): 2 µg/mL (≈ 5.18 µM) | MIC ([1]; S. aureus BG10 MRSA, single drug): 2 µg/mL (≈ 5.18 µM) | MIC ([1]; Staphylococcus aureus, MRSA, S. aureus BG6 MRSA, read-out: MIC): 2 µg/mL (≈ 5.18 µM) | MIC ([1]; Staphylococcus aureus, MRSA, S. aureus BG7 MRSA smv, read-out: MIC): 4 µg/mL (≈ 10.4 µM) | MIC ([1]; Staphylococcus aureus, MRSA, S. aureus BG8 MRSA, single drug, read-out: MIC): 2 µg/mL (≈ 5.18 µM) | MIC ([1]; Staphylococcus aureus, MRSA, S. aureus BG9 MRSA, single drug, read-out: MIC): 2 µg/mL (≈ 5.18 µM) | MIC ([1]; Staphylococcus aureus, MRSA, S. aureus BG10 MRSA, single drug, read-out: MIC): 2 µg/mL (≈ 5.18 µM) | MIC ([1]; Staphylococcus aureus, S. aureus BG1, read-out: MIC): 2 µg/mL (≈ 5.18 µM) | MIC ([1]; Staphylococcus aureus, S. aureus BG2, read-out: MIC): 4 µg/mL (≈ 10.4 µM) | MIC ([1]; Staphylococcus aureus, S. aureus BG3, read-out: MIC): 4 µg/mL (≈ 10.4 µM) | MIC ([1]; Staphylococcus aureus, S. aureus BG4, read-out: MIC): 8 µg/mL (≈ 20.7 µM) | MIC ([1]; Staphylococcus aureus, S. aureus BG5, read-out: MIC): 8 µg/mL (≈ 20.7 µM) | MIC ([1]; Staphylococcus aureus, S. aureus SA1, read-out: MIC): 4 µg/mL (≈ 10.4 µM) | MIC ([1]; Staphylococcus aureus, S. aureus SA2, read-out: MIC): 4 µg/mL (≈ 10.4 µM) | MIC ([1]; Staphylococcus aureus, S. aureus SA3, read-out: MIC): 2 µg/mL (≈ 5.18 µM) | MIC ([1]; Staphylococcus aureus, S. aureus SA4, read-out: MIC): 2 µg/mL (≈ 5.18 µM) | MIC ([1]; Staphylococcus aureus, S. aureus SA5, read-out: MIC): 4 µg/mL (≈ 10.4 µM) | MIC ([1]; Staphylococcus aureus, S. aureus SA6, read-out: MIC): 2 µg/mL (≈ 5.18 µM) | MIC ([1]; Staphylococcus aureus, S. aureus SA7, read-out: MIC): 2 µg/mL (≈ 5.18 µM) | MIC ([1]; Staphylococcus aureus, S. aureus SA8, read-out: MIC): 2 µg/mL (≈ 5.18 µM) | MIC ([1]; Staphylococcus aureus, S. aureus SA9, read-out: MIC): 4 µg/mL (≈ 10.4 µM) | MIC ([1]; Staphylococcus aureus, S. aureus SA10, read-out: MIC): 2 µg/mL (≈ 5.18 µM) | MIC ([1]; Staphylococcus aureus, S. aureus SA11, read-out: MIC): 4 µg/mL (≈ 10.4 µM) | MIC ([1]; Staphylococcus aureus, S. aureus SA12, read-out: MIC): 4 µg/mL (≈ 10.4 µM) | MIC ([1]; Staphylococcus aureus, S. aureus SA13, read-out: MIC): 4 µg/mL (≈ 10.4 µM) | MIC ([1]; Staphylococcus aureus, S. aureus SA14, read-out: MIC): 2 µg/mL (≈ 5.18 µM) | MIC ([1]; Staphylococcus aureus, S. aureus SA15, read-out: MIC): 4 µg/mL (≈ 10.4 µM) | MIC ([1]; Staphylococcus aureus, S. aureus SA16, read-out: MIC): 4 µg/mL (≈ 10.4 µM) | MIC ([1]; Staphylococcus aureus, S. aureus SA17, read-out: MIC): 2 µg/mL (≈ 5.18 µM) | MIC ([1]; Staphylococcus aureus, S. aureus SA18, read-out: MIC): 4 µg/mL (≈ 10.4 µM) | MIC ([1]; Staphylococcus aureus, S. aureus SA19, read-out: MIC): 2 µg/mL (≈ 5.18 µM) | MIC ([1]; Staphylococcus aureus, S. aureus SA20, read-out: MIC): 4 µg/mL (≈ 10.4 µM) | MIC ([1]; Staphylococcus aureus, S. aureus SA21, read-out: MIC): 2 µg/mL (≈ 5.18 µM) | MIC ([1]; Staphylococcus aureus, S. aureus SA22, read-out: MIC): 2 µg/mL (≈ 5.18 µM) | MIC ([1]; Staphylococcus aureus, S. aureus SA23, read-out: MIC): 4 µg/mL (≈ 10.4 µM) | MIC ([1]; Staphylococcus aureus, S. aureus SA24, read-out: MIC): 2 µg/mL (≈ 5.18 µM) | MIC ([1]; Staphylococcus aureus, S. aureus SA25, read-out: MIC): 2 µg/mL (≈ 5.18 µM) | MIC ([1]; Staphylococcus aureus, panel of clinical isolates from cystic fibrosis patients, read-out: MIC values for the vast majority of the clinical isolates): 2 to 4 µg/mL (≈ 5.18 to 10.4 µM) | Time-kill effect (S. aureus ATCC25923 [2]; 1- or 2-fold the MIC, 24 h): Bacteriostatic effect | Time-kill effect (S. aureus ATCC25923 [2]; half of the MIC): slight regrowth | Area of the cells compared to untreated cells (S. aureus ATCC25923 [3]): significantly larger | Percentage of cells in which FtsZ was delocalized [4]: 60% | Biofilm formation by CLSM and COMSTAT2 ([5]; 2 μg/mL): only slightly affected biofilm formation | Biofilm formation by CFU counting ([5]; 2- or 4-fold the MIC (4–8 μg/mL)): almost completely inhibit biofilm formation | Biofilm formation by CLSM and COMSTAT2 ([5]; 4 and 8 μg/mL): almost completely abolished it | Biofilm eradication, viable cells by CFU counting ([6]; 2 × MIC, 4 μg/mL, 24 h treatment): reduce the number of viable cells | Biofilm eradication by CLSM ([6]; increasing concentrations (4, 8, 16 μg/ml)): eradicating the majority of the attached cells | Toxicity for G. mellonella (survival of not infected, treated larvae) (G. mellonella): not toxic | MIC (P. aeruginosa PAO1; P. aeruginosa PAO1, C11 alone): ≥ 128 µg/mL | MIC (P. aeruginosa PAO1; Pseudomonas aeruginosa, PAO1, P. aeruginosa PAO1, + PaβN 64 µg/ml, read-out: MIC): 16 µg/mL | MIC (P. aeruginosa PAO1; Pseudomonas aeruginosa, PAO1, P. aeruginosa PAO1, + PaβN […], read-out: MIC): 1 µg/mL | MIC (P. aeruginosa PAO1; Pseudomonas aeruginosa, PAO1, P. aeruginosa PAO1, C11 alone, read-out: MIC): ≥ 128 µg/mL | MIC values in the presence of PAβN [7]: 1 to 16 µg/mL | IC50 (FtsZPa [8]): 34 µM | viability at 6 h, 25 µM [9]: > 90% | Percentage of live cells (MTT) [10]: higher than 70% | viability at 6 h, 25 µM [11]: 65% | viability at 24 h, 25 µM [11]: 25% | Percentage of live cells (MTT) (CFBE41o- cells): higher than 90% | Effect on FtsZPa GTPase activity (FtsZPa [12]): did not interfere with the GTPase activity
